Experimental data from publication PMC9668969 (Nature Communications, 2022).
Values joined by “and” are separate entries in the source; they are usually repeats but may differ in a detail not shown here. Equal entries are not always repeated.

Tested on: WT ELIC
Test: Tryptophan stopped-flow fluorescence measurements (rapid mixing with agonist, DDM)
Format: biochemical, Erwinia chrysanthemi
Settings: for Normalized change in TRP fluorescence: single experiments
Procedure: To measure the tryptophan (Trp) fluorescence emission of ELIC, WT or W206F ELIC was diluted to 3 ml (0.02 mg/ml) and an emission spectrum was collected in a quartz fluorescence cell using a Fluoromax Plus Spectrofluorometer (Horiba Scientific). Excitation was set at 295 nm and an emission spectrum was collected from 320 to 380 nm. Trp fluorescence measurements with rapid mixing of agonist was carried out using the SX20 stopped-flow spectrofluorometer, outfitted with a 295 nm LED excitation source. Purified ELIC was diluted to 0.1 mg/ml in Trp Stopped-flow Buffer A (10 mM Tris pH 7.5, 100 mM NaCl, 0.05% DDM). A single mixing experiment was performed by mixing ELIC with equal volumes of Buffer A + propylamine. Propylamine was prepared at varying concentrations at 2x the final concentration. The instrument dead time was ~1 ms, enabling capture of most of the time course of change in Trp fluorescence. The time course of decrease in Trp fluorescence after rapid mixing with propylamine was fit to a single exponential to obtain a time constant for the rate of decrease and a measure of the extent of decrease. All replicates were taken from distinct samples.

## CCCN [propylamine]
10 mM propylamine, DDM
  time constant of TRP fluorescence decrease: 9.9 ± 0.6 ms
DDM, Propylamine 0.3 mM
  Normalized change in TRP fluorescence, Average: 0.01079
DDM, Propylamine 1 mM
  Normalized change in TRP fluorescence, Average: 0.08703
DDM, Propylamine 3 mM
  Normalized change in TRP fluorescence, Average: 0.49
  Normalized change in TRP fluorescence: 0.3909 and 0.6901 and 0.389
DDM, Propylamine 10 mM
  Normalized change in TRP fluorescence, Average: 0.7765
  Normalized change in TRP fluorescence: 0.6381 and 0.8944 and 0.797
DDM, Propylamine 30 mM
  Normalized change in TRP fluorescence, Average: 0.9154
  Normalized change in TRP fluorescence: 0.9392 and 0.8561 and 0.951
DDM, Propylamine 100 mM
  Normalized change in TRP fluorescence, Average: 1
  Normalized change in TRP fluorescence: 1
ELIC in DDM
  Hill n of normalized change in TRP fluorescence: 1.6 ± 0.3
ELIC in DDM, Hill fit, read-out: EC50 of normalized change in TRP fluorescence
  EC50: 4.3 ± 0.8 mM
Vs Tl+ flux in 2:1:1 or POPC liposomes
  rate of decrease in tryptophan fluorescence relative to channel opening (fold faster): 2–4 ×
